# Test results taken from patent US20080268535A1, “Method for Inducing the Differentiation of Human Myelogenous Leukemia Cells Into Megakarocytes or Thrombocytes” (EWHA University - Industry Collaboration Foundation, priority 2005, published 2008).
# “Also recorded” adds a separate entry of the source.
# How the values were obtained:
# Format in all cases: cell-based, human
# K562 cells [1] = experiment: Differentiation inductivity, lineage receptor expression by FACS, K562 cells
# Method: K562 cells were aliquoted at a density of 2×10^5 per well in 6-well plates and treated with 40 μg/ml of (R)-NALPCE or 30 nM of PMA (12-phorbol myristate-13-acetate, Calbiochem.), followed by incubation for 4 days. After centrifugation (1,000 rpm, 10 min), the cell pellets thus obtained were washed three times with 0.01% bovine serum albumin (BSA) in PBS. The cells were incubated with 10 μl of anti-CD41-fluorescein-5-isothiocyanate (FITC) (Dako Chemicals, Carpenteria, Calif.), 20 μl of anti-CD16-Cy-Chrome (Cy) (BD Pharmingen), 10 μl of anti-glycophorin ACD235a-phycoerythrin (PE) (Dako Chemicals, Carpenteria, Calif.), and 20 μl of anti-CD14-allophycocyanin (APC) (BD Pharmingen) in 200 μl of 0.01% bovine serum albumin (BSA)-PBS at 4° C. for 50 min while spinning to realize homogeneous fluorescent staining. After centrifugation (1,000 rpm, 10 min), the cell pellets thus obtained were washed three times with 0.01% bovine serum albumin (BSA) in PBS. Fluorescence was analyzed on a fluorescence-activated cell sorter (FACS) (Aria) using a Cellquest program.
# HEL cells [2] = experiment: Differentiation inductivity, lineage receptor expression by FACS, HEL cells; conditions: 5 μg/ml (R)-NALPCE 5 days or 10 nM PMA 3 days
# Method: HEL cells were aliquoted at a density of 3×10^5 cells per well in 6-well plates and treated separately with 5 μg/ml of (R)-NALPCE and 10 nM of 12-phorbol myristate-13-acetate (PMA) (Calbiochem.), followed by incubation for 5 and 3 days, respectively. After centrifugation (1,000 rpm, 10 min), cell pellets thus obtained were washed three times with 0.01% bovine serum albumin (BSA) in PBS and incubated with 10 μl of anti-CD61-fluorescein-5-isothiocyanate (FITC) (Dako Chemicals, Carpenteria, Calif.), 20 μl of anti-CD16-Cy-Chrome (Cy) (BD Pharmingen), 10 μl of anti-glycophorin ACD235a-phycoerythrin (PE) (Dako Chemicals, Carpenteria, Calif.), and 20 μl of anti-CD14-allophycocyanin (APC) (BD Pharmingen) in 200 μl of 0.01% bovine serum albumin (BSA)-PBS at 4° C. for 50 min with spinning so as to achieve homogenous fluorescent staining over the cells. After centrifugation (1,000 rpm, 10 min), the cell pellets thus obtained were washed three times with 0.01% bovine serum albumin (BSA) in PBS. Fluorescence was analyzed on a fluorescence-activated cell sorter (FACS) (Aria) using a Cellquest program.
# K562 cells [3] = experiment: Cell differentiation of K562 cells on OP9 cells, optical microscopy; conditions: for cell morphology (optical microscope): 5 days
# Method: A stromal line of OP9 cells derived from […] was aliquoted at a density of 1×10^5 cells in 6-well plates and incubated for 24 hrs. After the OP9 cells were uniformly attached onto the bottom of the plates, K562 cells were layered at a density of 1×10^5 cells on the OP9 cells in 6-well plates. The cells were treated with 40 μg/ml of (R)-NALPCE, or 500 pmole, 10 nmole or 50 nmole of PMA before incubation for 5 days. They were observed under an optical microscope with 200× magnification.
# HEL cells [4] = experiment: Cell differentiation of HEL cells, optical microscopy; conditions: 5 μg/ml (R)-NALPCE, 10 nmole PMA or 50 ng/ml TPO, 5 days
# Method: HEL cells were aliquoted at a density of 3×10^5 cells per well in 6-well plates and treated with 5 μg/ml of (R)-NALPCE, 10 nmole of PMA, or 50 ng/ml of TPO, followed by incubation in a day-dependent manner for 5 days. They were observed under an optical microscope with 200× magnification.
Compound,"expression of CD41, CD16, glycophorin A and CD14 receptors (K562 cells [1]; K562 cells, 40 μg/ml (R)-NALPCE or 30 nM PMA, 4 days)","number of cells expressing CD41, PMA versus (R)-NALPCE (K562 cells [1]; leukemia cells derived from human bone marrow, without OP9 cells)","expression of CD61, CD235a, CD16 and CD14 receptors (HEL cells [2])","production or secretion of thrombocytes by differentiated megakaryocytes (K562 cells [3]; (R)-NALPCE with OP9 cells, PMA treatment)","cell morphology (optical microscope) (K562 cells [3]; K562 cells on OP9 cells, 500 pmole of PMA)","cell morphology (optical microscope) (K562 cells [3]; K562 cells on OP9 cells, 10 nmole of PMA)","thrombocyte-like morphology (K562 cells [3]; K562 cells on OP9 cells, 10 nmole of PMA, 5 days or more after treatment)","cell morphology (optical microscope) (K562 cells [3]; K562 cells on OP9 cells, 50 nmole of PMA)",cell morphology (optical microscope) (HEL cells [4])
"CCCCCCCCCCCCCC(=O)O[C@@H]1[C@@H](C)[C@@]2(O)[C@@H](C=C(CO)C[C@]3(O)C(=O)C(C)=C[C@@H]23)[C@@H]2C(C)(C)[C@]12OC(C)=O [PMA, phorbol 12-myristate 13-acetate]","CD41 (megakaryocyte-specific receptor), CD16 (neutrophil-specific receptor), CD14 (monocyte-specific receptor) were expressed, particularly with a great increase of CD41",increased in number more in a medium containing PMA than in a medium containing (R)-NALPCE,"CD61 (megakaryocyte-specific receptor), CD16 (neutrophil-specific receptor), and CD14 (monocyte-specific receptor) were expressed, particularly with a great increase of CD61",could not secrete thrombocytes; also recorded: could not produce thrombocyte-like cells,"did not differentiate, but proliferated, like a control","increase in size, but with morphology different from that of those treated with (R)-NALPCE",no morphology similar to thrombocytes was observed,differentiate into macrophages,"increased in size, but with morphology different from that upon treatment with (R)-NALPCE, and differentiated into macrophages"
"TPO: TPO, comparison agent applied at 50 ng/ml to HEL cells; abbreviation not expanded in the text",,,,,,,,,did not undergo significant change
